Measurements reported in patent US9738668B2.
Entries after “also recorded” stand apart in the source; their conditions may differ.

Tests used:
[1] = system: SK-N-SH cells; assay: Mitochondrial cytochrome c oxidase (CcO) activity in Aβ-treated cells; assay type: cell-based; conditions: for CcO activity, inhibitor alone: 1 μM inhibitor without Aβ; for CcO activity: 5 μM oligomer Aβ1-42 plus 1 μM inhibitor, 48 hours
Protocol: SK-NSH cells were treated with 5 μM oligomer Aβ plus 1 μM of ABAD inhibitor; inhibitor alone; vehicle (VEH) without inhibitor; or Aβ alone. Forty-eight hour later, CcO activity (μmol protein mg^−1 min^−1) was measured in cell lysates.
The CcO activity was measured according to known methods (Du, et al. (2008) Nat. Med. 14:1097-105) with a cytochrome c oxidase kit (Sigma). In brief, SK-N-SH cells were incubated with ABAD inhibitor and oligomer Aβ for 48 hours. After washing the cells twice with PBS, the cells were collected and concentration was determined by the Bradford method. A suitable volume of cells and enzyme solution was added to 475 μl assay buffer. The reaction was triggered by the addition of 25 μl freshly prepared ferrocytochrome C substrate solution into the cuvette. Changes in OD550 nm were recorded immediately with an Amersham Biosciences ULTROSPECT 3100 pro spectrophotometer.
To assess the effect of ABAD inhibitor on Aft-induced mitochondrial respiratory function, CcO activity was determined.

[2] = system: brain mitochondria; assay: Mitochondria swelling assay in response to Ca2+; set-up: species or system mice; conditions: for calcium-mediated mitochondrial swelling: with calcium
Protocol: Brain from mice without white matter was used for mitochondrial isolation. Brain was homogenized in 9 ml of ice-cold EB buffer (1 mmol EDTA, 1-6 mg/ml BSA) using a Dounce homogenizer until no particles could be seen. Homogenates were centrifuged at 1300×g for 5 minutes. Supernatant from this fraction was carefully laid on top of a 15% PERCOLL solution (10 ml) and then centrifuged at 16000 RPM for 10 minutes. The pellet was carefully mixed with 9 ml of mitochondrial buffer (4.098% D-mannitol, 2.56% sucrose, 0.034% K2HPO4, pH 7.3-7.4) and 200 μl of 1% digitonin. After 5 minutes incubation on ice, the mixture was centrifuged at 8000 RPM for 10 minutes. Mitochondrial pellet was washed once with mitochondrial buffer. Subsequently, the mitochondrial pellet was resuspended in 100 μl of mitochondrial buffer and was used for further experiments.
A proper amount of mitochondria was resuspended into 1 ml swelling assay buffer (150 mM KCl, 2 mM KH2PO4, 10 mM HEPES, pH 7.4) and energized by 1 mM glutamate and 1 mM malate. Calcium at varying concentrations was added into the assay buffer to trigger mitochondrial swelling. Mitochondrial permeability transition was determined by studying the rate of change in absorbance at 540 nm via a spectrophotometer.
Given that the Compounds 4, 8 and 15 could inhibit ABAD activity, it was determined whether these same compounds could decrease mitochondrial permeability transition pore (mPTP) formation.

[3] = system: SK-N-SH cells; assay: ATP levels in Aβ-treated cells; assay type: cell-based; conditions: for ATP levels: 5 μM Aβ1-42 plus 1 μM inhibitor; for ATP levels, inhibitor alone: inhibitor without Aβ
Protocol: Forty-eight hour later, ATP levels (μmol mg^−1 protein) were measured in cell lysates.
To determine the effect of ABAD inhibitors on Aβ-induced impairment in energy metabolism, ATP levels were measured. […] ATP levels were measured in the cell lysates. […] Therefore, ABAD inhibitors can block mitochondrial dysfunction mediated by Aβ.

[4] = system: mAPP mice; assay: Morris water maze learning and memory in Alzheimer's Disease transgenic mice; assay type: in vivo; conditions: for latency to find the hidden platform: treated vs untreated AD mice; for number of crossings at the target location / percent of time spent in the target quadrant: treated vs untreated mAPP mice, probe trial
Protocol: Wild-type mice (Non Tg) were also administered Compound 8 (n=5) and vehicle (n=5). Each mouse was given four 60-second trials per day for six consecutive days to find the hidden platform in a Morris water maze.
Wild-type mice were also administered Compound 8 […]. Each mouse was given four 60-second trials per day for seven consecutive days to find the hidden platform in a Morris water maze.
Each mouse was given four 60-second trials per day for six consecutive days to find the hidden platform in a Morris water maze.
In addition, the effect of Compounds 4 and 8 on learning and memory of Alzheimer's Disease (AD) transgenic mice was evaluated. Six month and 9-14 month-old transgenic mice overexpressing a mutated form of the human amyloid precursor protein (mAPP mice) and their wild-type (non Tg) littermates were used in this study. […] Moreover, performance in a spatial MWM trial was evaluated using crossings over the platform area (an index of memory precision; Morris (1984) J. Neurosci. Methods 11:47-60), percent of time spent in target quadrant (an index of memory retrieval; Morris (1984) J. Neurosci. Methods 11:47-60), and swim paths.

[5] = system: cells; assay: Trypan blue dye exclusion (cell viability and toxicity); assay type: cell-based; conditions: 1, 10, 50, 100 μM, 48 to 66 hours
Protocol: The trypan blue dye exclusion is commonly used for measuring cell viability and toxicity. 48-66 hours after treatment of ABAD compounds, the trypan blue exclusion experiments were performed. In brief, cells plated in 96-well plates were washed with the balanced salt solution (Hanks-Balanced Salts/HBSS) once, then replaced with HBSS including trypan blue solution to the final concentration of 0.2% (Sigma-Aldrich, St. Louis, Mo.), and mixed thoroughly. After standing at room temperature for 5 minutes, the cells were washed with HESS again and then maintained in the well with HBSS. Both the stained and unstained cells in each well were counted under a microscope (Nikon E400). The calculated percentage of unstained cells represented the percentage of viable cells. Cell viability (%)=total viable cells (unstained)/total cells (stained and unstained)×100.
The effect of ABAD inhibitors on cell viability and toxicity was assessed using MTT reduction assay and trypan blue exclusion, which are widely used to assess cell survival and toxicity and to screen for drugs toxicity. Cells were treated with a range of concentrations of ABAD compound (4 and 8) at 1, 10, 50, 100 μM for 48 to 66 hours.

[6] = system: hippocampal long-term potentiation; assay: Hippocampal long-term potentiation (LTP) in slices from treated mice; assay type: in vivo; conditions: hippocampal slices from treated mAPP mice
Protocol: LTP was induced by theta-burst stimulation (TBS) 20 minutes after baseline recordings in hippocampal slices from Non-Tg mice treated with vehicle (n=9 slices from 3 mice), Non-Tg mice treated with Compound 8 (n=9 slices from 3 mice), mAPP mice treated with vehicle (n=8 slices from 3 mice), and mAPP mice treated with Compound 8 (n=8 slices from 3 mice). LTP is expressed as percentage potentiation of baseline (100%)(FIG. 5A).
LTP is expressed as percentage potentiation of baseline (100%)(FIG. 7A).
Synaptic failure in AD is largely reflected by impaired long-term synaptic plasticity in terms of long-term potentiation (LTP). […] Representative field excitatory post-synaptic potentials (fEPSP) waveforms are provided in FIGS. 5A and 7A and the residual potentiation from fEPSP slopes occurring over the last 5 minutes of LTP recording are provided in FIGS. 5B and 7B.

[7] = Solubility in solvents during LC method development; assay type: physicochemical
Protocol: During the development of a detection method for analytes 4, 8 and 15, multiple solvents were tested to find the optimal mobile phase. […] Acetonitrile was selected for better peak shape and compatibility with serum/brain protein precipitation. Compounds 8 and 15 were chosen as IS, because of their structural similarity. Selected reaction monitoring (SRM) acquisitions were used for sensitivity and extended dynamic range. The cone voltage and collision energy were optimized for 4, 8 and 15 and the IS by continuously infusing a mixture of the two. The optimum cone voltage was 30V.

SMILES	CcO activity, inhibitor alone [1]	CcO activity [1]	calcium-mediated mitochondrial swelling [2]	mitochondrial swelling without calcium [2]	ATP levels [3]	ATP levels, inhibitor alone [3]	latency to find the hidden platform [4]	number of crossings at the target location [4]	percent of time spent in the target quadrant [4]	percentage of trypan blue-positive cells [5]	hippocampal long-term potentiation (LTP) [6]	solubility in methanol or acetonitrile [7]	solubility in water [7]
COc1ccc2nc(N[C@@H](c3ccc(O)cc3)P(=O)(OC)OC)sc2c1 (racemic) [Compound 8, Dimethyl ((4-hydroxyphenyl)((6-methoxybenzo[d]thiazol-2-yl)amino)methyl)phosphonate]	had no effect on CcO activity	reversed the Aβ-mediated decrease of CcO activity	antagonized calcium-mediated mitochondrial swelling	did not affect mitochondrial swelling	rescued ATP levels	comparable to cells treated with vehicle alone	significantly shorter latency	significantly more	significantly more	did not exhibit decreased MTT reduction, increased percentage of trypan blue-positive cells	impairments were diminished; also recorded: protective effects	dissolved readily	dissolved partially
COC(=O)c1cc([C@H](Nc2nc3ccc(OC)cc3s2)P(=O)(OC)OC)ccc1O [Compound 4, Methyl 5-((dimethoxyphosphoryl)((6-methoxybenzo[d]thiazol-2-yl)amino)methyl)-2-hydroxybenzoate]	had no effect on CcO activity	reversed the Aβ-mediated decrease of CcO activity	antagonized calcium-mediated mitochondrial swelling	did not affect mitochondrial swelling	rescued ATP levels	comparable to cells treated with vehicle alone	significantly shorter latency	significantly more	significantly more	did not exhibit decreased MTT reduction, increased percentage of trypan blue-positive cells	impairments were diminished; also recorded: protective effects	dissolved readily	dissolved partially
